Data as given in paper PMC10721898, “C5 methylation confers accessibility, stability and selectivity to picrotoxinin” (Nature Communications, 2023).
Where two headings read alike, the source gives them in different places.

Assays:
rat GABAA ion channel = experiment: Non-selective rat GABAA ion channel [3H]TBOB binding (antagonist radioligand) assay, rat cerebral cortex; conditions: [3H]TBOB displacement, n = 1
Protocol: The structurally privileged 5-methyl series was assayed for binding to both GABAA receptors (rat cortex membrane preparations) and RDL (expressed in Xenopus oocytes) and compared directly to the parent PXN (C5-H) series. The parallel series of PXN and 5MePXN analogs allowed us to interrogate the effect of the synthetically-enabling and stabilizing C5 methyl. […]
4. Rat GABAA receptors binding assay
Non-selective rat GABAA ion channel [3H] TBOB binding (Antagonist Radioligand) assay was conducted by Eurofins Pharma Discovery Service of Eurofins Cerep, France.
Compound binding was calculated as a % inhibition of the binding of the radioactive ly labeled ligand [3H] TBOB (t‐[3H]Butylbicycloorthobenzoate) for rat GABAA ion channels.9 A 20.0 mM stock solution was prepared in DMSO from each test compound to evaluate radioligand displacement of [3H] TBOB from rat cerebral cortex GABAA receptors at different concentrations.
The results are expressed as a percent of control specific binding measured specific binding*100 […]
and as a percent inhibition of control specific binding
100 − (measured specific binding*100) […]
obtained in the presence of the test compounds.
The IC50 values (concentration causing a half -maximal inhibition of control specific binding) and Hill coefficients (nH) were determined by non -linear regression analysis of th e competition curves generated with mean replicate values using Hill equation curve fitting […]
where Y = specific binding, A = left asymptote of the curve, D = right asymptote of the curve , C = compound concentration, C 50 = IC50, and nH = slope factor. This analysis was performed using software developed at Cerep (Hill software) and validated by comparison with data generated by th e commercial software SigmaPlot® 4.0 for Windows ® (© 1997 by SPSS Inc.).
The inhibition constants (K i) were calculated using the Cheng Prusoff equation where L = concentration of radioligand in the assay, and KD = affinity of the radioligand for the recept or. A scatchard plot is used to determine the K D.
Supplementary Table 8. IC50 values of test compound
(§1) Compound IC50 (µM) Compound IC50 (µΜ)

Drosophila RDL = biological target: T1, Drosophila RDL (Drosophila melanogaster, UniProt P25123); experiment: RDL receptors assay: two-electrode voltage clamp electrophysiology in Xenopus oocytes; format: cell-based
T1 construct: expressed in transfected cells; host or cells: Xenopus oocytes (Ecocyte, Austin, TX) microinjected with capped cRNA
T1 sequence (P25123 45-606): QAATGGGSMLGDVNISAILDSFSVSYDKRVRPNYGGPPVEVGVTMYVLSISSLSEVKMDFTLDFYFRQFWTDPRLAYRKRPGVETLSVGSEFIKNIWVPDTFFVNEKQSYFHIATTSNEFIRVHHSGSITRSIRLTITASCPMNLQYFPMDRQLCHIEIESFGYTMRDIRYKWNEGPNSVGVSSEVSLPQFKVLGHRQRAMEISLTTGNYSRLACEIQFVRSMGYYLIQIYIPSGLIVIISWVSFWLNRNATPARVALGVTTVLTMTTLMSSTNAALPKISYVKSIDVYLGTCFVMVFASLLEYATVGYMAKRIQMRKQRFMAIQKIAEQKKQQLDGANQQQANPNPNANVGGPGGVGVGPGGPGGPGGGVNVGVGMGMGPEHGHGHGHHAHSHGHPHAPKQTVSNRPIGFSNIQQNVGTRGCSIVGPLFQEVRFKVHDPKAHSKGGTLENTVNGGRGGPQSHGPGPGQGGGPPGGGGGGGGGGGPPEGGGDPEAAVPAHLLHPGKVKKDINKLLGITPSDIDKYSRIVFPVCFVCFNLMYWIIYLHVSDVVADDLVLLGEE
Protocol: 5. RDL receptors binding assay
The Drosophila RDL sequence (NP_01261616.1) was cloned into the pGH19 backbone via Gibson assembly for capped cRNA synthesis using the T7 mMessage mMachine kit (Invitrogen). cRNA samples were stored at - 80 °C until use. Ready to inject Xenopus oocytes were obtained from Ecocyte (Austin, TX) and microinjected using a Nanoinject III (Drummond Scientific) with 4 nL of cRNA (1 μg/μL). The oocytes were then incubated at 16 °C in ND96 storage solution (93.5 mM NaCl, 2 mM KCl, 1.8 mM CaCl 2·2H2O, 2 mM MgCl 2·6H2O, 5 mM HEPES at pH 7.5). Recording were made 1 -6 days post injection.
Electrophysiology experiments were performed using an automated two -electrode voltage clamp set -up (Roboocyte 2, Mutlichannel Systems). Recording head were filled with 3M KCl and gave resistan ce of 100-2000 kΩ in medium. Membrane potential was held at -60 mV and current signal was sampled at 20 kHz.
Experiments were performed at room temperature using Modified Barth’s Saline (MBS) (88 mM NaCl, 1 mM KCl, 2.4 mM NaHCO 3, 15 mM HEPES, 0.3 mM Ca(NO3)2, 0.41 mM CaCl 2, and 0.82 mM MgSO 4·7H2O at pH 7.4). Oocytes were perfused with MBS at 5 mL/min in all assays. GABA and all compounds were dissolved in MBS and a 0.1% DMSO negative control was utilized to correct for any solvent effect.
Initial block potential of each compound was assessed utilizing a pre -incubation method (MBS (30 sec), 10 μM GABA (15 sec), MBS wash (60 sec), compound (60 sec), compound + 10 μM GABA (15 sec), compound (60 sec), compound + 10 μM GABA (15 sec), MBS wash (60 sec) with 10 μM of each test compound. The maximum signal of the second co -application was compared to the initial GABA response to determine the % block and then standardized against the corresponding value of the 0.1% DMSO control. Dose responses were performed for any compound showing >50% block in the initial test using 10, 1, and 0.1 μM. The IC50 values were fit using an inhibitor vs response 4 -parameter fit (GraphPad Prism 8.1.2).
Supplementary Table 9. IC50 values of test compound
as §1

RDL = conditions: cited from earlier work
GABAA and RDL receptors = tested on: GABAA and RDL receptors; parameters: method as in PMID 8982503; conditions: cited from earlier work
[1] = Supplementary Table 8 (5MePXN series)
[2] = block of 10 μM GABA response, pre-incubation, -60 mV, Supplementary Table 9 (5MePXN series), n = 4, read-out: IC50
[3] = Supplementary Table 8 (PXN series)
[4] = block of 10 μM GABA response, pre-incubation, -60 mV, Supplementary Table 9 (PXN series), n = 4, read-out: IC50

CC(C)(F)C1C2OC(=O)C1(C)C1(O)CC3OC34C(=O)OC2C41C (stereo not shown) [12F5MePXN] showed an IC50 (rat GABAA ion channel; [1]) of 100 µM and an IC50 (Drosophila RDL; [2]) of over 10 µM.

In the case of CC(C)(O)C1C2OC(=O)C1(C)C1(O)CC3OC34C(=O)OC2C41C (stereo not shown) [5MePTN], the IC50 (rat GABAA ion channel; [1]) is reported as over 200 µM and the IC50 (Drosophila RDL; [2]) is reported as over 10 µM.

For CC(C)(F)C1C2OC(=O)C1(C)C1(F)CC3OC34C(=O)OC2C41C (stereo not shown) [6F12F5MePXN], the IC50 (rat GABAA ion channel; [1]) was over 200 µM and the IC50 (Drosophila RDL; [2]) was 0.994 µM.

Work on CC(C)C1C2OC(=O)C1(C)C1(O)CC3OC34C(=O)OC2C41C (stereo not shown) [H5MePXN] yielded an IC50 (rat GABAA ion channel; [1]) of 23 µM and an IC50 (Drosophila RDL; [2]) of over 10 µM.

In the case of CC(C)(C)C1C2OC(=O)C1(C)C1(O)CC3OC34C(=O)OC2C41C (stereo not shown) [12Me5MePXN], the IC50 (rat GABAA ion channel; [1]) is reported as 7.4 µM and the IC50 (Drosophila RDL; [2]) is reported as 2.88 µM.

For CC(C)C1C2OC(=O)C1(C)C1(F)CC3OC34C(=O)OC2C41C (stereo not shown) [6FH5MePXN], the IC50 (rat GABAA ion channel; [1]) was 52 µM and the IC50 (Drosophila RDL; [2]) was 2.74 µM.

Compound CC(C)C1C2OC(=O)C1C1(F)CC3OC34C(=O)OC2C14C (stereo not shown) [6FHPXN] has an IC50 (rat GABAA ion channel; [3]) of 6.5 µM and an IC50 (Drosophila RDL; [4]) of 0.561 µM.

Compound CC(C)(O)C1C2OC(=O)C1C1(F)CC3OC34C(=O)OC2C14C (stereo not shown) [6FPTN] has an IC50 (rat GABAA ion channel; [3]) of 56 µM and an IC50 (Drosophila RDL; [4]) of 4.92 µM.

For CC(C)(O)[C@@H]1[C@H]2OC(=O)[C@@H]1[C@]1(O)C[C@H]3O[C@]34C(=O)O[C@H]2[C@]14C [PTN, picrotin, reference compound], the IC50 (rat GABAA ion channel; [3]) is given as 54 µM, the “reported activity at RDL” value (RDL) is given as “inactivity” and the IC50 (Drosophila RDL) is given as 0.834 µM.

Compound CC(C)C1C2OC(=O)C1C1(O)CC3OC34C(=O)OC2C14C (stereo not shown) [HPXN] has an IC50 (rat GABAA ion channel; [3]) of 1 µM and an IC50 (Drosophila RDL) of 1.07 µM.

With C=C(C)C1C2OC(=O)C1C1(O)CC=C3C(=O)OC2C31C (stereo not shown) [8,9doPXN] the IC50 (rat GABAA ion channel; [3]) was 0.55 µM and the IC50 (Drosophila RDL; [4]) was 2.6 µM.

CC1(C2C3OC(=O)C2(C)C2(O)CC4OC45C(=O)OC3C52C)CC1 (stereo not shown) [Cyp5MePXN] gave an IC50 (rat GABAA ion channel; [1]) of 7.7 µM and an IC50 (Drosophila RDL; [2]) of 1.61 µM.

For picrodendrin O, the “selectivity index over GABAA” value (GABAA and RDL receptors) is listed as 76 fold.

With CC1(C2C3OC(=O)C2C2(O)CC4OC45C(=O)OC3C25C)CC1 (stereo not shown) [CypPXN] the IC50 (rat GABAA ion channel; [3]) was 0.39 µM and the IC50 (Drosophila RDL) was 0.693 µM.

In the case of C=C(C)C1C2OC(=O)C1C1(F)CC3OC34C(=O)OC2C14C (stereo not shown) [6FPXN], the IC50 (rat GABAA ion channel; [3]) is listed as 0.43 µM, the “reported activity at RDL” value (RDL) is listed as “lose channel blocking ability” and the IC50 (Drosophila RDL; [4]) is listed as 1.05 µM.

CC(C)(F)C1C2OC(=O)C1C1(O)CC3OC34C(=O)OC2C14C (stereo not shown) [12FPXN] showed an IC50 (rat GABAA ion channel; [3]) of 5.4 µM and an IC50 (Drosophila RDL; [4]) of over 10 µM.

In the case of C=C(C)C1C2OC(=O)C1(C)C1(F)CC3OC34C(=O)OC2C41C (stereo not shown) [6F5MePXN], the IC50 (rat GABAA ion channel; [1]) is reported as 14 µM and the IC50 (Drosophila RDL; [2]) is reported as 0.593 µM.

With CC(C)(C)C1C2OC(=O)C1C1(O)CC3OC34C(=O)OC2C14C (stereo not shown) [12MePXN] the IC50 (rat GABAA ion channel; [3]) was 0.31 µM and the IC50 (Drosophila RDL; [4]) was 0.676 µM.

C=C(C)C1C2OC(=O)C1(C)C1(O)CC=C3C(=O)OC2C31C (stereo not shown) [8,9do5MePXN] gave an IC50 (rat GABAA ion channel; [1]) of 9.2 µM and an IC50 (Drosophila RDL; [2]) of 4.41 µM.

Compound CC(C)(F)C1C2OC(=O)C1C1(F)CC3OC34C(=O)OC2C14C (stereo not shown) [6F12FPXN] has an IC50 (rat GABAA ion channel; [3]) of 32 µM and an IC50 (Drosophila RDL; [4]) of 2.24 µM.

Work on CC(C)(O)C1C2OC(=O)C1(C)C1(F)CC3OC34C(=O)OC2C41C (stereo not shown) [6F5MePTN] yielded an IC50 (rat GABAA ion channel; [1]) of over 200 µM and an IC50 (Drosophila RDL; [2]) of 1.55 µM.
